Data from patent publication US12347214B2, “Microspore culture predictive model generation and use” (PIONEER HI-BRED INTERNATIONAL, INC., priority 2019, dated 2025).

What was measured:
[1] = test system: AtWOX2pro::CENH3-GFP activity in transgenic canola microspores; assay: AtWOX2pro::CENH3-GFP reporter activity in canola microspore culture with inducing agent; format: cell-based; settings: with trichostatin A treatment
Text: The methods described above for corn may also be adapted for use with other crops and for use with a reporter gene. As proof of concept, Canola microspore cells were obtained from a plant line that had been transformed with a green fluorescent protein reporter gene fused to a plant developmental gene with an effect on plant histones. While transformation was used in this case, other known gene insertion techniques such as CRISPR may be used to insert the reporter gene into the plant genome. A stable homozygous Canola line with the AtWOX2pro::CENH3-GFP fusion protein was developed. This protein attaches to plant histones, associates with plant chromocenters and can be used to determine chromosome number. GFP served as the reporter gene, although any reporter gene could also be used. This stable transgenic line was used to generate a microspore for in vitro tissue culture. Trichostatin A, a histone deacetylase inhibitor known to alter the embryogenic potential of dicot microspores was used as the inducing agent.

plant cells = assay: Staining of plant cells with fluorescent dye, continued cell development; format: cell-based; settings: dye added at the beginning of the culture; plant cells continued to develop
Text: (§1) In the embodiment described herein, the fluorescent dye BODIPY 564/70, which stains both cell membranes and subcellular compartments, such as vacuoles, was used. […] BODIPY 564/70 is non-toxic to plant cells, so the plant cells continued to develop. BODIPY 564/70 is also very stable in cell culture conditions, so supplementation of the dye at the beginning of the culture was sufficient to generate informative images until the end point of the analysis. Other dyes, combinations of dyes, such as CFDA and FM4-64, and combinations of dyes with fluorescent protein markers, may also be used with the present method in order to generate different images. Options for fluorescent imaging include imaging cells that comprise fluorescent proteins, such as green (GFP), blue (EBFP, EBFP2, Azurite, mKalama1), cyan (ECFP, Cerulean, CyPet, mTurquoise2), red (dsRed, mCherry, tomato, etc.), far-red (mIFP, iBlueberry etc.) and yellow (YFP, Citrine, Venus, YPet). Plant cell stain techniques are known in the art, for example, see Ruzin, S. E. Plant Microtechnique and Microscopy. New York: Oxford University Press. ISBN 0195089561 (1999).

[2] = Dye stability in cell culture conditions; format: physicochemical; settings: supplementation at beginning of culture sufficient until end point of analysis
Text: as §1

| Molecule | detection of AtWOX2pro::CENH3-GFP activity ([1]; first timepoint) | detection of AtWOX2pro::CENH3-GFP activity ([1]; second time point) | toxicity to plant cells (plant cells) | stability in cell culture conditions [2] |
| --- | --- | --- | --- | --- |
| CC(/C=C/C(=O)NO)=C\[C@@H](C)C(=O)c1ccc(N(C)C)cc1 [trichostatin A, Trichostatin A] | no or very low detection | increased detection | – | – |
| BODIPY 564/70 | – | – | non-toxic | very stable |
